Values joined by “and” are separate entries in the source; they are usually repeats but may differ in a detail not shown here. Identical values can stand only once.
Columns and labels:
MOLM13 = test: Cell growth inhibition, CellTiter-Glo Luminescent Cell Viability Assay, MOLM13; format: cell-based; conditions: MOLM13 cells, 4 days
Method: (§1) Cell growth inhibitory activity of representative Compounds of the Disclosure was determined using the CellTiter-Glo® Luminescent Cell Viability Assay. Cells were seeded in 384-well white opaque cell culture plates at a density of 2,000 cells/well with serially diluted compounds and incubated at 37° C. in an atmosphere of 95% air and 5% CO2 for 4 days. Cell viability was determined using the CellTiter-Glo® Luminescent Cell Viability Assay Kit (Promega, Madison, Wis.) according to the manufacture's instruction. Briefly, a volume of CellTiter-Glo® Reagent equal to the volume of cell culture medium was added to each well, and then the plates were incubated at room temperature for 10-20 minutes. The luminescent signal was measured using a Tecan Infinite M1000 multimode microplate reader (Tecan, Morrisville, N.C.). The half maximal inhibitory concentration (IC50) in Table 3 was calculated using the GraphPad Prism 5 software (GraphPad Software, La Jolla, Calif.).

MDA-MB-231 = test: Cell growth inhibition, CellTiter-Glo Luminescent Cell Viability Assay, MDA-MB-231; format: cell-based; conditions: MDA-MB-231 cells, 4 days
Method: as §1

SMILES	IC50 (MOLM13; Homo sapiens, MOLM-13, 96 h) [nM]	IC50 (MDA-MB-231; Homo sapiens, MDA-MB-231, 96 h) [nM]	IC50 (MOLM13) [nM]	IC50 (MDA-MB-231)
Cc1c(C#Cc2cnn(CCCC(=O)OCCN3CCC(Nc4cccc5c4CN(C4CCC(=O)NC4=O)C5=O)CC3)c2)sc2c1C(c1ccc(Cl)cc1)=N[C@@H](C)c1nnc(C)n1-2 (stereo partly drawn) [Cpd. No. 11, 2-(4-((2-(2,6-dioxopiperidin-3-yl)-1-oxoisoindolin-4-yl)amino)piperidin-1-yl)ethyl 4-(4-(((S)-4-(4-chlorophenyl)-3,6,9-trimethyl-6H-thieno[3,2-f][1,2,4]triazolo[4,3-a][1,4]diazepin-2-yl)ethynyl)-1H-pyrazol-1-yl)butanoate]	0.06	0.1	–	–
Cc1c(C#Cc2cnn(CCCC(=O)OCCOCCCN3CCC(Nc4cccc5c4CN(C4CCC(=O)NC4=O)C5=O)CC3)c2)sc2c1C(c1ccc(Cl)cc1)=N[C@@H](CC(=O)N1CCN(C)CC1)c1nnc(C)n1-2 (stereo partly drawn) [compound 2, 2-(3-(4-((2-(2,6-dioxopiperidin-3-yl)-1-oxoisoindolin-4-yl)amino)piperidin-1-yl)propoxy)ethyl 4-(4-(((S)-4-(4-chlorophenyl)-3,9-dimethyl-6-(2-(4-methylpiperazin-1-yl)-2-oxoethyl)-6H-thieno[3,2-f][1,2,4]triazolo[4,3-a][1,4]diazepin-2-yl)ethynyl)-1H-pyrazol-1-yl)butanoate]	7.5	19.4	–	–
Cc1c(C#Cc2cnn(CC(=O)OCC#Cc3cccc4c3CN(C3CCC(=O)NC3=O)C4=O)c2)sc2c1C(c1ccc(Cl)cc1)=N[C@@H](C)c1nnc(C)n1-2 (stereo partly drawn) [compound 3, 3-(2-(2,6-dioxopiperidin-3-yl)-1-oxoisoindolin-4-yl)prop-2-yn-1-yl 2-(4-(((S)-4-(4-chlorophenyl)-3,6,9-trimethyl-6H-thieno[3,2-f][1,2,4]triazolo[4,3-a][1,4]diazepin-2-yl)ethynyl)-1H-pyrazol-1-yl)acetate]	–	–	1.8	2.1 nM
Cc1c(C#Cc2cnn(CCCC(=O)OCCOCCOCCOCC#Cc3cccc4c3CN(C3CCC(=O)NC3=O)C4=O)c2)sc2c1C(c1ccc(Cl)cc1)=N[C@@H](CC(=O)N1CCN(C)CC1)c1nnc(C)n1-2 (stereo partly drawn) [compound 6, 2-(2-(2-((3-(2-(2,6-dioxopiperidin-3-yl)-1-oxoisoindolin-4-yl)prop-2-yn-1-yl)oxy)ethoxy)ethoxy)ethyl 4-(4-(((S)-4-(4-chlorophenyl)-3,9-dimethyl-6-(2-(4-methylpiperazin-1-yl)-2-oxoethyl)-6H-thieno[3,2-f][1,2,4]triazolo[4,3-a][1,4]diazepin-2-yl)ethynyl)-1H-pyrazol-1-yl)butanoate]	2.8	32	–	–
Cc1c(C#Cc2cnn(CCCC(=O)OCCCOCCN3CCC(Nc4cccc5c4CN(C4CCC(=O)NC4=O)C5=O)CC3)c2)sc2c1C(c1ccc(Cl)cc1)=N[C@@H](CC(=O)N1CCN(C)CC1)c1nnc(C)n1-2 (stereo partly drawn) [compound 7, 3-(2-(4-((2-(2,6-dioxopiperidin-3-yl)-1-oxoisoindolin-4-yl)amino)piperidin-1-yl)ethoxy)propyl 4-(4-(((S)-4-(4-chlorophenyl)-3,9-dimethyl-6-(2-(4-methylpiperazin-1-yl)-2-oxoethyl)-6H-thieno[3,2-f][1,2,4]triazolo[4,3-a][1,4]diazepin-2-yl)ethynyl)-1H-pyrazol-1-yl)butanoate]	9.6	4.5	–	–
Cc1c(C#Cc2cnn(CCCC(=O)OCCCOCCN3CCC(Nc4cccc5c4CN(C4CCC(=O)NC4=O)C5=O)CC3)c2)sc2c1C(c1ccc(Cl)cc1)=N[C@@H](C)c1nnc(C)n1-2 (stereo partly drawn) [compound 8, 3-(2-(4-((2-(2,6-dioxopiperidin-3-yl)-1-oxoisoindolin-4-yl)amino)piperidin-1-yl)ethoxy)propyl 4-(4-(((S)-4-(4-chlorophenyl)-3,6,9-trimethyl-6H-thieno[3,2-f][1,2,4]triazolo[4,3-a][1,4]diazepin-2-yl)ethynyl)-1H-pyrazol-1-yl)butanoate]	1.1	1.3	–	–
Cc1c(C#Cc2cnn(CCCC(=O)OCCN3CCC(Nc4cccc5c4CN(C4CCC(=O)NC4=O)C5=O)CC3)c2)sc2c1C(c1ccc(Cl)cc1)=N[C@@H](CC(=O)N1CCN(C)CC1)c1nnc(C)n1-2 (stereo partly drawn) [compound 12, 2-(4-((2-(2,6-dioxopiperidin-3-yl)-1-oxoisoindolin-4-yl)amino)piperidin-1-yl)ethyl 4-(4-(((S)-4-(4-chlorophenyl)-3,9-dimethyl-6-(2-(4-methylpiperazin-1-yl)-2-oxoethyl)-6H-thieno[3,2-f][1,2,4]triazolo[4,3-a][1,4]diazepin-2-yl)ethynyl)-1H-pyrazol-1-yl)butanoate]	0.05	0.08	–	–
Cc1nnc2n1-c1sc(C#Cc3cnn(CCCOC(=O)CCc4cccc5c4CN(C4CCC(=O)NC4=O)C5=O)c3)c(Cc3ccccc3)c1COC2 (stereo not shown) [compound 17, 3-(4-((3-benzyl-9-methyl-4H,6H-thieno[2,3-e][1,2,4]triazolo[3,4-c][1,4]oxazepin-2-yl)ethynyl)-1H-pyrazol-1-yl)propyl 3-(2-(2,6-dioxopiperidin-3-yl)-1-oxoisoindolin-4-yl)propanoate]	1.8	39	–	–
Cc1nnc2n1-c1sc(C#Cc3cnn(CCCC(=O)OCCOCCOCCOCCOc4cccc5c4CN(C4CCC(=O)NC4=O)C5=O)c3)c(Cc3ccccc3)c1COC2 (stereo not shown) [compound 22, 2-(2-(2-(2-((2-(2,6-dioxopiperidin-3-yl)-1-oxoisoindolin-4-yl)oxy)ethoxy)ethoxy)ethoxy)ethyl 4-(4-((3-benzyl-9-methyl-4H,6H-thieno[2,3-e][1,2,4]triazolo[3,4-c][1,4]oxazepin-2-yl)ethynyl)-1H-pyrazol-1-yl)butanoate]	5.2	185	–	–
Cc1nnc2n1-c1sc(C#Cc3cnn(CCCC(=O)OCOCCCOc4cccc5c4CN(C4CCC(=O)NC4=O)C5=O)c3)c(Cc3ccccc3)c1COC2 (stereo not shown) [compound 23, (3-((2-(2,6-dioxopiperidin-3-yl)-1-oxoisoindolin-4-yl)oxy)propoxy)methyl 4-(4-((3-benzyl-9-methyl-4H,6H-thieno[2,3-e][1,2,4]triazolo[3,4-c][1,4]oxazepin-2-yl)ethynyl)-1H-pyrazol-1-yl)butanoate]	2.1	77.9	–	–
Cc1nnc2n1-c1sc(C#Cc3cnn(CCCC(=O)OCCCN4CCC(Nc5cccc6c5CN(C5CCC(=O)NC5=O)C6=O)CC4)c3)c(Cc3ccccc3)c1COC2 (stereo not shown) [compound 25, 3-(4-((2-(2,6-dioxopiperidin-3-yl)-1-oxoisoindolin-4-yl)amino)piperidin-1-yl)propyl 4-(4-((3-benzyl-9-methyl-4H,6H-thieno[2,3-e][1,2,4]triazolo[3,4-c][1,4]oxazepin-2-yl)ethynyl)-1H-pyrazol-1-yl)butanoate]	2.4	7.3	–	–
Cc1nnc2n1-c1sc(C#Cc3ccn(CCC(=O)OCCC#Cc4cccc5c4CN(C4CCC(=O)NC4=O)C5=O)n3)c(Cc3ccccc3)c1COC2 (stereo not shown) [compound 28, 4-(2-(2,6-dioxopiperidin-3-yl)-1-oxoisoindolin-4-yl)but-3-yn-1-yl 3-(3-((3-benzyl-9-methyl-4H,6H-thieno[2,3-e][1,2,4]triazolo[3,4-c][1,4]oxazepin-2-yl)ethynyl)-1H-pyrazol-1-yl)propanoate]	0.2	2	–	–
Cc1nnc2n1-c1sc(C#Cc3ccn(CCC(=O)OCCCCc4cccc5c4CN(C4CCC(=O)NC4=O)C5=O)n3)c(Cc3ccccc3)c1COC2 (stereo not shown) [compound 29, 4-(2-(2,6-dioxopiperidin-3-yl)-1-oxoisoindolin-4-yl)butyl 3-(3-((3-benzyl-9-methyl-4H,6H-thieno[2,3-e][1,2,4]triazolo[3,4-c][1,4]oxazepin-2-yl)ethynyl)-1H-pyrazol-1-yl)propanoate]	0.3	9.8	–	–
Cc1nnc2n1-c1sc(C#Cc3ccn(CCC(=O)OCCCNc4cccc5c4CN(C4CCC(=O)NC4=O)C5=O)n3)c(Cc3ccccc3)c1COC2 (stereo not shown) [compound 30, 3-((2-(2,6-dioxopiperidin-3-yl)-1-oxoisoindolin-4-yl)amino)propyl 3-(3-((3-benzyl-9-methyl-4H,6H-thieno[2,3-e][1,2,4]triazolo[3,4-c][1,4]oxazepin-2-yl)ethynyl)-1H-pyrazol-1-yl)propanoate]	0.6	148	–	–
Cc1nnc2n1-c1sc(C#Cc3cnn(CCOC(=O)CCC#Cc4cccc5c4CN(C4CCC(=O)NC4=O)C5=O)c3)c(Cc3ccccc3)c1COC2 (stereo not shown) [compound 31, 2-(4-((3-benzyl-9-methyl-4H,6H-thieno[2,3-e][1,2,4]triazolo[3,4-c][1,4]oxazepin-2-yl)ethynyl)-1H-pyrazol-1-yl)ethyl 5-(2-(2,6-dioxopiperidin-3-yl)-1-oxoisoindolin-4-yl)pent-4-ynoate]	1.3	–	–	9.1 nM and 5.6 nM
Cc1nnc2n1-c1sc(C#Cc3cnn(CCOC(=O)CCCCc4cccc5c4CN(C4CCC(=O)NC4=O)C5=O)c3)c(Cc3ccccc3)c1COC2 (stereo not shown) [compound 32, 2-(4-((3-benzyl-9-methyl-4H,6H-thieno[2,3-e][1,2,4]triazolo[3,4-c][1,4]oxazepin-2-yl)ethynyl)-1H-pyrazol-1-yl)ethyl 5-(2-(2,6-dioxopiperidin-3-yl)-1-oxoisoindolin-4-yl)pentanoate]	0.6	25.8	–	–
Cc1nnc2n1-c1sc(C#Cc3cnn(CCOC(=O)CCC#Cc4cccc5c4CN(C4CCC(=O)NC4=O)C5=O)c3)c(Cc3ccccc3)c1COC2 (stereo not shown) [compound 33, 2-(4-((3-benzyl-9-methyl-4H,6H-thieno[2,3-e][1,2,4]triazolo[3,4-c][1,4]oxazepin-2-yl)ethynyl)-1H-pyrazol-1-yl)ethyl 5-(2-(2,6-dioxopiperidin-3-yl)-1-oxoisoindolin-4-yl)pent-4-ynoate]	–	–	1.6	35.6 nM
